Where a SMILES comes first, the peptide text is derived from it. Bridges are numbered along the chain shown (N, C = ends). [ ]: non-standard residue; d: D form. Dab(iPr) = CC(C)NCC[C@H](N)C(=O)O; Hyp = O=C(O)[C@@H]1C[C@@H](O)CN1; Cit = NC(=O)NCCC[C@H](N)C(=O)O; Pen = CC(C)(S)[C@H](N)C(=O)O; dDab = NCC[C@@H](N)C(=O)O; Orn = NCCC[C@H](N)C(=O)O; Dab = NCC[C@H](N)C(=O)O
Tests used:
Type in all cases: cell-based
[1] = system: human red blood cells (hRBC); details: red cells of human, 1 h, 200 μg/mL
Summary of the method: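 Percent hemolysis derived from OD540 of supernatants relative to full lysis by 2.5% Triton X-100 (PBS baseline). Washed fresh human erythrocytes (20% v/v) were exposed to 200 μg/mL peptide for 1 h at 37 °C with shaking.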

[2] = system: Escherichia coli MCR-1 Af 45; details: MCR-1 Af 45
Summary of the method: (§1)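 CLSI broth microdilution, slightly modified: cation-adjusted Mueller-Hinton II broth with about 5×10^5 CFU/mL from a 0.5 McFarland suspension, and two-fold serial peptide dilutions with Polysorbate 80 at 0.002% final. MIC (μg/mL) was the lowest concentration with no visible growth after 18-20 hours at 35° C.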

[3] = system: Escherichia coli ATCC 25922; details: ATCC 25922
Summary of the method: as §1

[4] = system: Klebsiella pneumoniae SSI3010; details: SSI3010
Summary of the method: as §1

Structure (SMILES)	Hemolysis at 0.2 g/L [1] [%]	Escherichia coli MCR-1 Af45 MIC [2] [µg/mL]	Escherichia coli ATCC 25922 MIC [3] [µg/mL]	Klebsiella pneumoniae SSI3010 MIC [4] [µg/mL]
CC[C@H](C)[C@H](NC(=O)[C@@H]1C[C@@H](O)CN1C(=O)[C@@H](N)C(C)C)C(=O)N[C@@H]1C(=O)N[C@@H](Cc2ccc(O)cc2)C(=O)N[C@@H](CO)C(=O)N[C@@H](CC(N)=O)C(=O)N[C@@H](CCCNC(=N)N)C(=O)N[C@@H](CCN)C(=O)N[C@@H]([C@@H](C)O)C(=O)N[C@H](CCN)C(=O)N[C@@H](CCCCN)C(=O)N[C@@H](CCCNC(N)=O)C(=O)N[C@@H](CCN)C(=O)N[C@H](C(=O)N[C@@H](Cc2ccc(O)cc2)C(=O)O)CSSC1(C)C [Example 53, Val-Hyp-Ile-Pen-Tyr-Ser-Asn-Arg-Dab-Thr-^DDab-Lys-Cit-Dab-Cys-Tyr] (H-V[Hyp]I[Pen]YSNR[Dab]T[dDab]K[Cit][Dab]CY-OH; disulfide 4-15)	<1	0.25	0.25	1
CC[C@H](C)[C@H](NC(=O)[C@@H]1C[C@@H](O)CN1C(=O)[C@@H](N)C(C)C)C(=O)N[C@@H]1C(=O)N[C@@H](Cc2ccc(O)cc2)C(=O)N[C@@H](CO)C(=O)N[C@@H](CC(N)=O)C(=O)N[C@@H](CCCNC(=N)N)C(=O)N[C@@H](CCN)C(=O)N[C@@H]([C@@H](C)O)C(=O)N[C@H](CCN)C(=O)N[C@@H](CCCCN)C(=O)N[C@@H](CCCNC(=N)N)C(=O)N[C@@H](CCN)C(=O)N[C@H](C(=O)N[C@@H](Cc2ccc(O)cc2)C(=O)O)CSSC1(C)C [Example 54, Val-Hyp-Ile-Pen-Tyr-Ser-Asn-Arg-Dab-Thr-^DDab-Lys-Arg-Dab-Cys-Tyr] (H-V[Hyp]I[Pen]YSNR[Dab]T[dDab]KR[Dab]CY-OH; disulfide 4-15)	<1	0.0625	0.125	0.25
CC[C@H](C)[C@H](NC(=O)[C@@H]1C[C@@H](O)CN1C(=O)[C@@H](N)C(C)C)C(=O)N[C@@H]1C(=O)N[C@@H](Cc2ccc(O)cc2)C(=O)N[C@@H](CO)C(=O)N[C@@H](CC(N)=O)C(=O)N[C@@H](CCCNC(=N)N)C(=O)N[C@@H](CCN)C(=O)N[C@@H]([C@@H](C)O)C(=O)N[C@H](CCN)C(=O)N[C@@H](CCCCN)C(=O)N[C@@H](CCCN)C(=O)N[C@@H](CO)C(=O)N[C@H](C(=O)N[C@@H](Cc2ccc(O)cc2)C(=O)O)CSSC1(C)C [Example 55, Val-Hyp-Ile-Pen-Tyr-Ser-Asn-Arg-Dab-Thr-^DDab-Lys-Orn-Ser-Cys-Tyr] (H-V[Hyp]I[Pen]YSNR[Dab]T[dDab]K[Orn]SCY-OH; disulfide 4-15)	<1	0.25	0.25	0.5
CC[C@H](C)[C@H](NC(=O)[C@@H]1C[C@@H](O)CN1C(=O)[C@@H](N)C(C)C)C(=O)N[C@@H]1C(=O)N[C@@H](Cc2ccc(O)cc2)C(=O)N[C@@H](CCN)C(=O)N[C@@H](CC(N)=O)C(=O)N[C@@H](CCCNC(=N)N)C(=O)N[C@@H](CCN)C(=O)N[C@@H]([C@@H](C)O)C(=O)N[C@H](CCN)C(=O)N[C@@H](CCCCN)C(=O)N[C@@H](CCN)C(=O)N[C@@H](CO)C(=O)N[C@H](C(=O)N[C@@H](Cc2ccc(O)cc2)C(=O)O)CSSC1(C)C [Example 56, Val-Hyp-Ile-Pen-Tyr-Dab-Asn-Arg-Dab-Thr-^DDab-Lys-Dab-Ser-Cys-Tyr] (H-V[Hyp]I[Pen]Y[Dab]NR[Dab]T[dDab]K[Dab]SCY-OH; disulfide 4-15)	<1	0.125	0.25	0.25
CC[C@H](C)[C@H](NC(=O)[C@@H]1C[C@@H](O)CN1C(=O)[C@@H](N)C(C)C)C(=O)N[C@@H]1C(=O)N[C@@H](Cc2ccc(O)cc2)C(=O)N[C@@H](CO)C(=O)N[C@@H](CC(N)=O)C(=O)N[C@@H](CCCNC(=N)N)C(=O)N[C@@H](CCN)C(=O)N[C@@H]([C@@H](C)O)C(=O)N[C@H](CCN)C(=O)N[C@@H](CCCCN)C(=O)N[C@@H](CCN)C(=O)N[C@H](CCN)C(=O)N[C@H](C(=O)N[C@@H](Cc2ccc(O)cc2)C(=O)O)CSSC1(C)C [Example 58, Val-Hyp-Ile-Pen-Tyr-Ser-Asn-Arg-Dab-Thr-^DDab-Lys-Dab-^DDab-Cys-Tyr] (H-V[Hyp]I[Pen]YSNR[Dab]T[dDab]K[Dab][dDab]CY-OH; disulfide 4-15)	<1	0.125	0.125	0.25
CC[C@H](C)[C@H](NC(=O)[C@@H]1C[C@@H](O)CN1C(=O)[C@@H](N)C(C)C)C(=O)N[C@@H]1C(=O)N[C@@H](Cc2ccc(O)cc2)C(=O)N[C@@H](CO)C(=O)N[C@@H](CC(N)=O)C(=O)N[C@@H](CCCNC(=N)N)C(=O)N[C@@H](CCN)C(=O)N[C@@H]([C@@H](C)O)C(=O)N[C@H](CCN)C(=O)N[C@@H](CCCCN)C(=O)N[C@@H](CCN)C(=O)N[C@@H](CCCNC(N)=O)C(=O)N[C@H](C(=O)N[C@@H](Cc2ccc(O)cc2)C(=O)O)CSSC1(C)C [Example 59, Val-Hyp-Ile-Pen-Tyr-Ser-Asn-Arg-Dab-Thr-^DDab-Lys-Dab-Cit-Cys-Tyr] (H-V[Hyp]I[Pen]YSNR[Dab]T[dDab]K[Dab][Cit]CY-OH; disulfide 4-15)	<1	0.25	0.25	0.5
CC[C@H](C)[C@H](NC(=O)[C@@H]1C[C@@H](O)CN1C(=O)[C@@H](N)C(C)C)C(=O)N[C@@H]1C(=O)N[C@@H](Cc2ccc(O)cc2)C(=O)N[C@@H](CO)C(=O)N[C@@H](CC(N)=O)C(=O)N[C@@H](CCCNC(=N)N)C(=O)N[C@@H](CCN)C(=O)N[C@@H]([C@@H](C)O)C(=O)N[C@H](CCN)C(=O)N[C@@H](CCCCN)C(=O)N[C@@H](CCN)C(=O)N[C@@H](Cc2ccc(O)cc2)C(=O)N[C@H](C(=O)N[C@@H](Cc2ccc(O)cc2)C(=O)O)CSSC1(C)C [Example 60, Val-Hyp-Ile-Pen-Tyr-Ser-Asn-Arg-Dab-Thr-^DDab-Lys-Dab-Tyr-Cys-Tyr] (H-V[Hyp]I[Pen]YSNR[Dab]T[dDab]K[Dab]YCY-OH; disulfide 4-15)	<1	0.25	0.25	1
CC[C@H](C)[C@H](NC(=O)[C@@H]1C[C@@H](O)CN1C(=O)[C@@H](N)C(C)C)C(=O)N[C@@H]1C(=O)N[C@@H](Cc2ccc(O)cc2)C(=O)N[C@@H](CO)C(=O)N[C@@H](CC(N)=O)C(=O)N[C@@H](CCCNC(=N)N)C(=O)N[C@@H](CCN)C(=O)N[C@@H]([C@@H](C)O)C(=O)N[C@H](CCN)C(=O)N[C@@H](CCCCN)C(=O)N[C@@H](CCN)C(=O)N[C@@H](CC(N)=O)C(=O)N[C@H](C(=O)N[C@@H](Cc2ccc(O)cc2)C(=O)O)CSSC1(C)C [Example 61, Val-Hyp-Ile-Pen-Tyr-Ser-Asn-Arg-Dab-Thr-^DDab-Lys-Dab-Asn-Cys-Tyr] (H-V[Hyp]I[Pen]YSNR[Dab]T[dDab]K[Dab]NCY-OH; disulfide 4-15)	<1	0.25	0.25	0.5
CC[C@H](C)[C@H](NC(=O)[C@@H]1C[C@@H](O)CN1C(=O)[C@@H](N)C(C)C)C(=O)N[C@@H]1C(=O)N[C@@H](Cc2ccc(O)cc2)C(=O)N[C@@H](CO)C(=O)N[C@@H](CC(N)=O)C(=O)N[C@@H](CCCNC(=N)N)C(=O)N[C@@H](CCN)C(=O)N[C@@H]([C@@H](C)O)C(=O)N[C@H](CCN)C(=O)N[C@@H](CCCCN)C(=O)N[C@@H](CCN)C(=O)N[C@@H](CCCCN)C(=O)N[C@H](C(=O)N[C@@H](Cc2ccc(O)cc2)C(=O)O)CSSC1(C)C [Example 62, Val-Hyp-Ile-Pen-Tyr-Ser-Asn-Arg-Dab-Thr-^DDab-Lys-Dab-Lys-Cys-Tyr] (H-V[Hyp]I[Pen]YSNR[Dab]T[dDab]K[Dab]KCY-OH; disulfide 4-15)	<1	0.0625	0.125	0.25
CC[C@H](C)[C@H](NC(=O)[C@@H]1C[C@@H](O)CN1C(=O)[C@@H](N)C(C)C)C(=O)N[C@@H]1C(=O)N[C@@H](Cc2ccc(O)cc2)C(=O)N[C@@H](CO)C(=O)N[C@@H](CC(N)=O)C(=O)N[C@@H](CCCNC(=N)N)C(=O)N[C@@H](CCN)C(=O)N[C@@H]([C@@H](C)O)C(=O)N[C@H](CCN)C(=O)N[C@@H](CCCCN)C(=O)N[C@@H](CCN)C(=O)N[C@@H](CCNC(C)C)C(=O)N[C@H](C(=O)N[C@@H](Cc2ccc(O)cc2)C(=O)O)CSSC1(C)C [Example 63, Val-Hyp-Ile-Pen-Tyr-Ser-Asn-Arg-Dab-Thr-^DDab-Lys-Dab-Dab(iPr)-Cys-Tyr] (H-V[Hyp]I[Pen]YSNR[Dab]T[dDab]K[Dab][Dab(iPr)]CY-OH; disulfide 4-15)	<1	0.0625	0.125	0.25
